Results reported in ChEMBL document CHEMBL4011592, “Synthesis and evaluation of 7-substituted-5,6-dihydrobenzo[c]acridine derivatives as new c-KIT promoter G-quadruplex binding ligands” (Eur J Med Chem, 2017).
Active and inactive are the calls of the source. The calls are words filed in the database; no cut-off is given here.

How the values were obtained:
[1] = test system: A549; experiment: Cytotoxicity against human A549 cells after 48 hrs by MTT assay; assay type: functional, cell-based; conditions: A549, 48 h
[2] = Binding affinity to 5'-FAM/3'-TAMARA labelled c-KIT2 G-quadruplex DNA (unknown origin) assessed as change in melting temperature at 1 uM by FRET assay
[3] = Binding affinity to 5'-FAM/3'-TAMARA labelled c-KIT1 G-quadruplex DNA (unknown origin) assessed as change in melting temperature at 1 uM by FRET assay
[4] = test system: BJ; experiment: Cytotoxicity against human BJ cells after 48 hrs by MTT assay; assay type: cell-based
[5] = Binding affinity to F10T duplex DNA (unknown origin) assessed as change in melting temperature at 2 uM by FRET assay
[6] = Binding affinity to 5'-FAM/3'-TAMARA labelled c-KIT1 G-quadruplex DNA (unknown origin) assessed as change in melting temperature at 2 uM in presence ds26 DNA by FRET assay
[7] = Binding affinity to F10T duplex DNA (unknown origin) assessed as change in melting temperature at 1 uM by FRET assay
[8] = test system: K562; experiment: Cytotoxicity against human K562 cells after 48 hrs by MTT assay; assay type: functional, cell-based; conditions: K562, 48 h
[9] = Binding affinity to biotinylated duplex DNA (unknown origin) by SPR assay
[10] = Binding affinity to 5'-FAM/3'-TAMARA labelled c-KIT1 G-quadruplex DNA (unknown origin) assessed as change in melting temperature at 2 uM by FRET assay
[11] = Selectivity ratio of Kd for biotinylated duplex DNA (unknown origin) to Kd for biotinylated c-KIT1 G-quadruplex DNA (unknown origin)
[12] = Binding affinity to biotinylated c-KIT1 G-quadruplex DNA (unknown origin) by SPR assay
[13] = test system: HeLa; experiment: Cytotoxicity against human HeLa cells after 48 hrs by MTT assay; assay type: functional, cell-based
[14] = Binding affinity to c-KIT1 G-quadruplex DNA (unknown origin) assessed as hyperchromicity at 5 uM measured after 10 mins by fluorescence spectroscopic method
[15] = Binding affinity to c-KIT1 G-quadruplex DNA (unknown origin) assessed as ability to promote c-KIT G-rich sequences to form parallel G-quadruplex at 25 uM in absence of KCl measured after 10 mins by CD-spectroscopic analysis
[16] = Binding affinity to c-KIT1 G-quadruplex DNA (unknown origin) assessed as hyperchromicity at 10 uM measured after 10 mins by UV-vis spectroscopic method
[17] = Binding affinity to c-KIT1 G-quadruplex DNA (unknown origin) assessed as maintainance of parallel c-KIT G-quadruplex conformation at 5 uM in presence of KCl measured after 10 mins by CD-spectroscopic analysis
[18] = Binding affinity to c-KIT1 G-quadruplex DNA (unknown origin) assessed as 1:1 binding stoichiometry between compound and G-quadruplex DNA by Job's plot method
[19] = Binding affinity to c-KIT1 G-quadruplex DNA (unknown origin) measured after 10 mins by UV-vis spectroscopic method
[20] = Binding affinity to c-KIT1 G-quadruplex DNA (unknown origin) assessed as isosbestic point at 10 uM measured after 10 mins by UV-vis spectroscopic method
[21] = Binding affinity to c-KIT1 G-quadruplex DNA (unknown origin) assessed as 1:1 binding stoichiometry between compound and G-quadruplex DNA 10 uM by ESI-MS spectra analysis
[22] = Binding affinity to c-KIT2 G-quadruplex DNA (unknown origin) assessed as ability to promote c-KIT G-rich sequences to form parallel G-quadruplex at 25 uM in absence of KCl measured after 10 mins by CD-spectroscopic analysis
[23] = Binding affinity to c-KIT1 G-quadruplex DNA (unknown origin) assessed as red shift at 10 uM measured after 10 mins by UV-vis spectroscopic method
[24] = Binding affinity to c-KIT2 G-quadruplex DNA (unknown origin) assessed as maintainance of parallel c-KIT G-quadruplex conformation at 5 uM in presence of KCl measured after 10 mins by CD-spectroscopic analysis

SMILES | IC50 [1] | ΔTm [2] | ΔTm [3] | IC50 [4] | ΔTm [5] | Activity [6] | ΔTm [7] | IC50 [8] | Kd [9] | ΔTm [10] | Selectivity ratio [11] | Kd [12] | IC50 [13] | also measured
COc1cc2c(cc1OC)-c1c(c(NCCCN3CCCC3)c3ccccc3[n+]1C)CC2 | > 50 µM | 4.7 °C | 10.7 °C | > 50 µM | 0.3 °C | Active | 1.1 °C | 19.2 µM | > 20 µM | 14 °C | > 6.1 | 3.3 µM | > 50 µM | 
COc1cc2c(cc1OC)-c1nc3ccccc3c(NCCCN(C)C)c1CC2 | 3.6 µM | 9 °C | 12.3 °C | 4.2 µM | 2.3 °C | Active | 1.3 °C | 6.7 µM | > 20 µM | 20.4 °C | > 5.7 | 3.5 µM | 5.1 µM | 
COc1cc2c(cc1OC)-c1nc3ccccc3c(NCCCN3CCCC3)c1CC2 | 3.9 µM | 8.6 °C | 10.8 °C | 6.7 µM | 2.9 °C | Active | 1.1 °C | 4.2 µM | > 20 µM | 20.5 °C | > 6.9 | 2.9 µM | 4.3 µM | 
COc1cc2c(cc1OC)-c1nc3ccccc3c(NCCCN3CCCCC3)c1CC2 | 4.4 µM | 8.1 °C | 11.6 °C | 12.3 µM | 2.1 °C | Active | 1.4 °C | 3.9 µM | > 20 µM | 20.2 °C | > 5.1 | 3.9 µM | 9.9 µM | 
COc1cc2c(cc1OC)-c1nc3ccccc3c(NCCCN3CCN(C)CC3)c1CC2 | 6.4 µM | 8.6 °C | 18.7 °C | 13.7 µM | 1.6 °C | Active | 1.3 °C | 4.2 µM | > 20 µM | 22.9 °C | > 7.1 | 2.8 µM | 9.6 µM | 
CCN(CC)CCNc1c2c([n+](C)c3ccccc13)-c1cc(OC)c(OC)cc1CC2 | > 50 µM | 3.3 °C | 8.5 °C | > 50 µM | 0.5 °C | Active | 0.9 °C | 24.9 µM | > 20 µM | 10.3 °C | > 5.1 | 3.9 µM | > 50 µM | 
CCN(CC)CCCNC(=O)c1c2c(nc3ccccc13)-c1cc(OC)c(OC)cc1CC2 | > 50 µM | 0.6 °C | 3.4 °C | > 50 µM | 0.5 °C |  | 0.5 °C | > 50 µM | > 20 µM | 6.6 °C | > 7.1 | 2.8 µM | > 50 µM | 
COc1cc2c(cc1OC)-c1nc3ccccc3c(C(=O)NCCCN3CCCCC3)c1CC2 | > 50 µM | 0.6 °C | 3.3 °C | > 50 µM | 0.6 °C |  | 0.3 °C | > 50 µM | > 20 µM | 5.2 °C | > 5.4 | 3.7 µM | > 50 µM | 
COc1cc2c(cc1OC)-c1nc3ccccc3c(NCCN3CCCCC3)c1CC2 | 18.5 µM | 2.6 °C | 4.7 °C | > 50 µM | 0.2 °C | Active | 0.1 °C | 13.1 µM | > 20 µM | 7.8 °C | > 2.6 | 7.8 µM | 39.7 µM | 
COc1cc2c(cc1OC)-c1c(c(NCCN(C)C)c3ccccc3[n+]1C)CC2 | > 50 µM | 2.8 °C | 6.7 °C | > 50 µM | 0.3 °C | Active | 0.8 °C | 33.5 µM | > 20 µM | 7.4 °C | > 2.5 | 8 µM | > 50 µM | 
COc1cc2c(cc1OC)-c1nc3ccccc3c(C(=O)NCCN3CCCC3)c1CC2 | > 50 µM | 0.6 °C | 2.2 °C | > 50 µM | 0.6 °C |  | 0.1 °C | > 50 µM | > 20 µM | 3.4 °C |  | > 20 µM | > 50 µM | 
COc1cc2c(cc1OC)-c1c(cc3c(OCCCN4CCCCC4)c(OC)ccc3[n+]1C)CC2 |  | 4.4 °C | 4.4 °C |  | 0.7 °C | Active | 0.2 °C |  | > 20 µM | 12.2 °C | > 7.1 | 2.8 µM |  | 
COc1cc2c(cc1OC)-c1nc3ccccc3c(Cl)c1CC2 |  | 0.1 °C | 0.1 °C |  | 0.1 °C |  | 0.7 °C |  | > 20 µM | 0.2 °C |  | > 20 µM |  | 
COc1cc2c(cc1OC)-c1nc3ccccc3c(NCCN(C)C)c1CC2 | 5.6 µM | 6.7 °C | 12.1 °C | 19 µM | 0.9 °C | Active | 0.7 °C | 25.8 µM | 9.4 µM | 16.4 °C | 2.2 | 4.2 µM | 11.7 µM | 
COc1cc2c(cc1OC)-c1nc3ccccc3c(NCCN3CCCC3)c1CC2 | 2.8 µM | 6.2 °C | 11.1 °C | 5.2 µM | 1.2 °C | Active | 0.8 °C | 4.8 µM | 7.7 µM | 16.7 °C | 3.1 | 2.5 µM | 4.6 µM | 
COc1cc2c(cc1OC)-c1nc3ccccc3c(NCCN3CCN(C)CC3)c1CC2 | 3 µM | 9 °C | 17.4 °C | 7.9 µM | 2 °C | Active | 1.7 °C | 22.9 µM | 17 µM | 22.6 °C | 5.2 | 3.3 µM | 5.3 µM | 
COc1cc2c(cc1OC)-c1c(c(NCCCN(C)C)c3ccccc3[n+]1C)CC2 | > 50 µM | 3.7 °C | 8.6 °C | > 50 µM | 0.3 °C | Active | 0.8 °C | > 50 µM | > 20 µM | 10.7 °C | > 3.4 | 5.8 µM | > 50 µM | 
CCN(CC)CCCNc1c2c([n+](C)c3ccccc13)-c1cc(OC)c(OC)cc1CC2 | > 50 µM | 3.6 °C | 7.5 °C | > 50 µM | 0.4 °C | Active | 0.9 °C | 37.1 µM | > 20 µM | 10.8 °C | > 2.7 | 7.4 µM | > 50 µM | Activity [14]: Active; Activity [15]: Active; Activity [16]: Active; Activity [17]: Active; Activity [18]: Active; Kd [19]: 9.1 µM; Activity [20]: Active; Activity [21]: Active; Activity [22]: Active; Activity [23]: Active; Activity [24]: Active
CCN(CC)CCNc1c2c(nc3ccccc13)-c1cc(OC)c(OC)cc1CC2 | 5.8 µM | 6.5 °C | 9.8 °C | 22.7 µM | 0.9 °C | Active | 0.6 °C | 8 µM | 5.9 µM | 15.7 °C | 2.2 | 2.7 µM | 17.9 µM | 
COc1cc2c(cc1OC)-c1c(c(NCCN3CCCC3)c3ccccc3[n+]1C)CC2 | 36 µM | 3.7 °C | 7.7 °C | 36 µM | 0.4 °C | Active | 0.9 °C | > 50 µM | > 20 µM | 11.3 °C | > 9.1 | 2.2 µM | 44.3 µM | 
